{
  "source": "patent US20150209316A1",
  "about": "“AGENT FOR ENHANCING IMMUNITY CONTAINING GLUTATHIONE” (KYOWA HAKKO BIO CO., LTD., priority 2012, published 2015)",
  "key": {"[1]": {"system": "lymphocyte", "details": "oral administration to a human; cited from earlier work"}, "[2]": {"system": "NK cell", "details": "oral administration to a human; cited from earlier work"}, "[3]": {"details": "oral administration to a human; cited from earlier work"}, "[4]": {"system": "human K562 cells", "details": "after 3 months", "protocol": "The design included the recruitment of healthy subjects (28-79 yr. of age, mean=46.6 years) randomized into 3 groups (GSH at 1000 mg/day, GSH at 250 mg/day, and placebo). […] Blood samples were obtained from all subjects at baseline. […] Capsules were formulated, and subjects began supplementation according to the following schedule as follows: • Group A, GSH: 500 mg/capsule and cellulose: 15 mg/capsule, (2 pills daily); • Group B, GSH: 125 mg/capsule and cellulose: 360 mg/capsule, (2 pills daily); • Group C (placebo), cellulose: 470 mg/capsule, (2 pills daily).\nEligible participants were randomly assigned to either placebo (Group C) or high (Group A) or low (Group B) dose glutathione groups. […]\n(§1) Blood samples were collected from an antecubital vein into 3 tubes containing sodium heparin as an anticoagulant and immediately placed on ice. […] Cell number was assessed after addition of 40 μl trypan blue to 10 μl of cell suspension using a hemocytometer. […]\nNK Cell Cytotoxicity—NK cell cytotoxicity was assessed using human K562 cells, labeled with sodium ^51chromate as target cell. […] Lymphocyte samples from each of the five time points were thawed, washed 3 times, counted to determine cell viability and added in triplicate to the wells at an effector:target cell ratio of 10:1. After incubation for 4 hr. at 37° C., cells were collected and supernatant analyzed for radioactivity by gamma counting. […]"}, "[5]": {"system": "murine-derived splenic lymphocytes", "details": "in vitro; cited from earlier work"}, "[6]": {"system": "lymphocytes", "details": "after 3 months, both GSH groups (250 and 1000 mg/day oral), dose dependent", "protocol": "The design included the recruitment of healthy subjects (28-79 yr. of age, mean=46.6 years) randomized into 3 groups (GSH at 1000 mg/day, GSH at 250 mg/day, and placebo). […] Blood samples were obtained from all subjects at baseline. Subjects began supplementation according to the following schedule: Glutathione capsules were provided by the sponsor, Kyowa Hakko USA. Capsules were formulated, and subjects began supplementation according to the following schedule as follows: • Group A, GSH: 500 mg/capsule and cellulose: 15 mg/capsule, (2 pills daily); • Group B, GSH: 125 mg/capsule and cellulose: 360 mg/capsule, (2 pills daily); • Group C (placebo), cellulose: 470 mg/capsule, (2 pills daily). […]\nas §1\nLymphocyte Proliferation—Lymphocyte samples from each of the 5 time points (0, 1, 3, 6, and 7 months) were thawed, washed 3 times and counted to determine cell viability. […] Cell proliferation was monitored by 3H-thymidine incorporation. Intracellular radioactivity was measured by liquid scintillation counting and results were expressed as cpm."}, "[7]": {"system": "murine-derived splenic lymphocytes", "details": "in vitro; cited from earlier work", "remark": "listed apart in the source"}, "[8]": {"system": "lymphocyte", "details": "by administering 2-ME; cited from earlier work"}},
  "data": [
    {"smiles": "CC(=O)N[C@@H](CS)C(=O)O", "note": "[N-acetylcysteine]", "values": [
      {"measurement": "PHA stimulated lymphocyte proliferation", "setting": "[1]", "value": "increased"},
      {"measurement": "NK cell cytotoxic activity", "setting": "[2]", "value": "increased"},
      {"measurement": "glutathione concentration in immune cells", "setting": "[3]", "value": "increased"}
    ]},
    {"smiles": "N[C@@H](CCC(=O)N[C@@H](CS)C(=O)NCC(=O)O)C(=O)O", "note": "[GSH, γ-L-Glu-L-Cys-Gly]", "values": [
      {"measurement": "mean % lysis values (NK cell cytotoxicity)", "setting": "[4]; both GSH groups (250 and 1000 mg/day oral), dose dependent, effector:target 10:1", "value": "Increases in mean % lysis values were observed"},
      {"measurement": "significance of increase in % lysis versus baseline", "setting": "[4]; high GSH dose arm 1000 mg/day, Ppaired=0.01", "value": "only significant in the high GSH dose arm"},
      {"measurement": "NK cell cytotoxic activity", "setting": "[5]", "value": "increased in a GSH concentration dependent fashion"},
      {"measurement": "glutathione concentration in lymphocytes compared to placebo group (Group C)", "setting": "Group A, 1000 mg/day oral, 1 and 6 months, chi-square test", "value": "significant difference (p<0.05)"},
      {"measurement": "maximum increase of lymphocyte total glutathione", "setting": "high dose GSH group (1000 mg/day oral), after 6 months", "value": "about 30%"},
      {"measurement": "time course of lymphocyte glutathione levels", "setting": "high dose group (1.0 g/day oral), 1, 3, 6 months", "value": "levels progressively increasing from 1 to 3 to 6 months of administration"},
      {"measurement": "mean proliferative capacity of lymphocytes (3H-thymidine, cpm)", "setting": "[6]", "value": "Increases in mean proliferative capacity were observed"},
      {"measurement": "Con A induced lymphocyte proliferation activity", "setting": "[7]", "value": "increased in a GSH concentration dependent fashion"}
    ]},
    {"smiles": "OCCS", "note": "[2-melcaptoethanol]", "values": [
      {"measurement": "lymphocyte proliferation", "setting": "[8]", "value": "lymphocyte proliferation action"}
    ]}
  ]
}
